This is an account of results in ChEMBL document CHEMBL5393454, “Compounds inhibitors of mettl3” (2022).

The target in this assay is N6-adenosine-methyltransferase catalytic subunit (Homo sapiens, UniProt Q86U44). Description: Inhibition of full length His-tagged METTL3 (unknown origin) co-expressed with full length FLAG-tagged METTL14 in baculovirus expression system preincubated using 5'P-uacacucgaucuggacuaaagcugcuc-3' as substrate and SAM as cosubstrate pre-incubated for 10 mins followed by addition of substrates and measured after 60 mins by RapidFire mass spectrometry (RF/MS) analysis.
N6-adenosine-methyltransferase catalytic subunit, sequence (Q86U44 whole entry): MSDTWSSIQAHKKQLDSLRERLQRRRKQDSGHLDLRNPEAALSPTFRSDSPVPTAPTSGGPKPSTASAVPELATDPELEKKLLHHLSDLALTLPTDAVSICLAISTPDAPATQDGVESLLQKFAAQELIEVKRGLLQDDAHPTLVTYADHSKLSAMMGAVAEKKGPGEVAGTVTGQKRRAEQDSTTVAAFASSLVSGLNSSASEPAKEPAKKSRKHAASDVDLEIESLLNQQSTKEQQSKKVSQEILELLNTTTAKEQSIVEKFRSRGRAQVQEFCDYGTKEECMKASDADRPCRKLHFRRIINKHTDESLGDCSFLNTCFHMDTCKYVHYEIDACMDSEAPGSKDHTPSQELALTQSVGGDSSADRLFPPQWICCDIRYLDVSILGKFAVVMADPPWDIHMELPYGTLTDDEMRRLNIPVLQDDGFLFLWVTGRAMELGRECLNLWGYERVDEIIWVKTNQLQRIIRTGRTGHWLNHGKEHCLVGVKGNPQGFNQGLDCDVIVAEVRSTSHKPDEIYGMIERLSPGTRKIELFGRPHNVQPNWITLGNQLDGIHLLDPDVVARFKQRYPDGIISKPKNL

With `Nc1ncnc2c1c(Br)cn2[C@@H]1O[C@H](/C=C/CCCNCC2CC(F)(F)C2)[C@@H](O)[C@H]1O`, inhibition was half-maximal at 22.7 nM (IC50).

Take `Nc1ncnc2c1c(Br)cn2[C@@H]1O[C@H](/C=C/CCCNCC23CC(F)(C2)C3)[C@@H](O)[C@H]1O`: the IC50 (commonly the concentration at which inhibition is half-maximal) was less than 6 nM.

`Nc1ncnc2c1c(Br)cn2[C@@H]1C[C@H](c2ccc3cc(CNCC45CC(F)(C4)C5)[nH]c3c2)[C@@H](O)[C@H]1O`: the IC50 was less than 6 nM.
